Earlier results as cited in patent US8552051B2 (H. L. Hall & Sons Limited, priority 2009, dated 2013).

How the values were obtained:
PDE4 = details: Napoletano, M. et al. 2001
5-HT uptake = 5-HT uptake (Homo sapiens, UniProt P31645); details: U.S. Pat. No. 6,288,104
5-HT uptake, sequence (P31645 whole entry): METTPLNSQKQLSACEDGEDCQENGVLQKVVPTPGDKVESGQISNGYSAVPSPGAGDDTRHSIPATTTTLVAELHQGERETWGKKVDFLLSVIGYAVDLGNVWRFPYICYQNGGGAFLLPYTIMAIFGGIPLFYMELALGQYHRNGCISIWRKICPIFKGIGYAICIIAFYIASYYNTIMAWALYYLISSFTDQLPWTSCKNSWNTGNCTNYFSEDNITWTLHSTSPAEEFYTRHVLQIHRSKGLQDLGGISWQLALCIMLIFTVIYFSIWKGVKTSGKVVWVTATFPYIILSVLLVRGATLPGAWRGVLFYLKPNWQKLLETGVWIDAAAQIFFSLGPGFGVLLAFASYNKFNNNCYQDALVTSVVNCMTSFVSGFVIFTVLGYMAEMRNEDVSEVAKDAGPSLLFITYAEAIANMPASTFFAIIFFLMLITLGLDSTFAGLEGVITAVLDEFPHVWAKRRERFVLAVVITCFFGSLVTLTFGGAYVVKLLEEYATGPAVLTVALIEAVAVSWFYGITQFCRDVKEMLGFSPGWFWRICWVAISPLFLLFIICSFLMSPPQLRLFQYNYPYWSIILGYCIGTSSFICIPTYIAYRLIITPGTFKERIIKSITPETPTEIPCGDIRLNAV

SMILES | PDE4 inhibition, result in words (PDE4) | 5-HT uptake inhibitory activity, result in words (5-HT uptake)
COc1ccc(C23CCC(=O)CC2N(C)CC3)cc1OC.Cl (centres unmarked) [Mesembrine hydrochloride] | weak PDE4 inhibitor | –
COc1ccc(C23C=CC(O)CC2N(C)CC3)cc1OC (centres unmarked) [mesembrenol] | – | potent 5-HT uptake inhibitory activity
